Laboratory results published in patent publication US20220105218A1, “METHODS AND SYSTEMS FOR REDUCING A PATHOGEN POPULATION” (The Board of Trustees of the Leland Standford Junior …, priority 2019, published 2022).

Tested on: E. coli
Experiment: Disinfection of E. coli-infected surfaces, SYTO9/PI confocal fluorescence microscopy
Type: cell-based
Conditions: on stainless steel, plastic and spinach leaf, 20 min treatment
Protocol: The efficacy of AquaROS as a disinfectant for reducing pathogen concentration was tested with three different surfaces infected with E. coli: stainless steel, plastic, and spinach leaf (cut from a single leaf as 1-cm×1-cm squares and washed 3× with distilled water and dried ambiently prior to E. coli deposition). For these experiments, E. coli was cultured in LB broth at 37° C. for approximately 16 hours. Using sterilized LB broth, the E. coli suspension was diluted to a concentration of 4.5×10^8 cells/mL, using a UV-vis spectrophotometer to monitor absorption at 600 nm. Infection of each surface was achieved by deposition of 10 μL of 4.5×10^8 cell/mL E. coli suspension followed by drying in a desiccator for approximately 10 min. AquaROS was applied by spraying pure water at 120 psi and at a height of 1.5 cm from the E. coli surface with a 10 μl/min flow rate for 20 min (FIG. 6). Control samples were treated by depositing 100 μL of 3% H2O2 and allowing it to react for 20 min at room temperature. Following treatment with AquaROS spray and 3% H2O2, 1 mL PBS 1× (pH 7.4) was added to the glass vial containing the treated material, swirled, then pipetted into a 1-mL Eppendorf tube. […]
FIG. 7 is a plot of E. coli death by AquaROS spray on the different surfaces compared to 3% H2O2. Cell death data were acquired by confocal fluorescence microscopy of each sample placed on a glass slide. […]

**Q.** With `OO` [3% H2O2, hydrogen peroxide] as the molecule, how does the E. coli death read?
**A.** approximately 60%
